How the values were obtained:
naive Swiss-Webster mice = assay: Elevated plus-maze; assay type: in vivo; settings: 100 or 500 mg/kg
Protocol: The anxiolytic effect of the DCUK-OMe was studied in naive Swiss-Webster mice using an elevated plus-maze apparatus. The plus-shaped maze consists of two arms which are open to the environment (about 30×5 cm) and two arms with side and end walls (about 30×5×15 cm). The arms are connected to a central area (about 5×5 cm) and the plus-maze is elevated from the floor to a height of about 50 cm.
All tests were conducted in a sound-attenuated room under low intensity light (25 Watt). […] A trained observer blind to the treatment conditions scored the number of entries into open arms, the number of entries into closed arms, the number of entries into the central area, the number of rears, and the number of grooming episodes over a 5-minute period. […] The percentage open arm entries was calculated for each animal and used as a measure of the anxiolytic/anxiogenic effects of drug treatment. In addition, the total number of entries made into either open or closed arms was recorded as a measure of drug effects on locomotor activity.
Mice were injected with either vehicle (5% Tween-80, 20% Intralipid) or 100 mg/kg or 500 mg/kg DCUK-OMe suspended in the vehicle about 90 minutes before testing in the plus-maze apparatus. Data were expressed as the percent increase in open arm entries of the drug treated animals compared to vehicle-injected mice. […] Data were analyzed using a one-way ANOVA on ranks. […]

[1] = biological target: benzodiazepine binding site on the GABAA receptor; assay: [3H]flunitrazepam binding, rat cortical membranes; settings: 5–200 μM DCUKA tested
Protocol: SITES IN CEREBRUM OF F-344 RATS: EFFECTS OF EXERCISE,” Neurobiol. […] Non-specific binding was defined by 10 μM diazepam.

[2] = biological target: T1, rabbit cardiac L-type VSCC (Oryctolagus cuniculus, UniProt P15381); assay: Currents through VSCCs in oocytes, two electrode voltage clamp; assay type: cell-based; settings: 50 μM, Li+ currents, holding −80 mV, test −20 mV
T1 construct: expressed in transfected cells; host or cells: Xenopus laevis oocytes, cRNA injection
Protocol: In other studies, Stage V and VI oocytes were prepared from Xenopus laevis and maintained using the procedures described in Example 3. Oocytes were injected with cRNA encoding the rabbit cardiac L-type VSCC αic, together with the ancillary subunits α2/β and β2b in a 1:1:1 molar ratio. Macroscopic currents were recorded 4–6 days following injection using the two electrode voltage clamp technique. During recording, oocytes were maintained at room temperature in a perfusion chamber and perfused (1 ml/min) continuously with a buffer containing (in mM) 100 LiCl, 10 HEPES, 10 HEDTA, 14 TEA-Cl, 0.015 CaCl2, (effective free calcium concentration ˜3 nM), pH 7.4 with TEA-OH. The monovalent ion Li^+was used as the charge carrier rather than Ba^2+in these studies because high concentrations of divalent ions promoted precipitation of DCUKA.
DCUKA was made up as a stock solution in DMSO and used in the studies at a concentration of 50 μM, resulting in a final DMSO percentage of 0.25%. This concentration of DMSO enhanced Li^+currents to a small extent, however, this was controlled for by exchanging between solutions that were identical except for presence/absence of the drug itself. […] Li^+currents were recorded using an OC-725B amplifier (Warner Instruments), filtered at 1 kHz (4-pole Bessel filter, Warner Instruments) and sampled at 2 kHz. Voltage pulses of 250 ms duration were given every 15 sec. […]

[3] = biological target: T2, NR1a/NR2A recombinant receptors (Homo sapiens, UniProt Q05586+Q12879); assay: NMDA-induced currents in oocytes expressing NR1a/NR2A; assay type: cell-based; settings: 100 μM NMDA, 1 μM glycine, oocytes; read-out: IC50, inhibition of NMDA-induced currents
T2 construct: expressed in transfected cells; host or cells: Xenopus laevis oocytes, nuclear cDNA injection
Protocol: Oocytes were obtained from Xenopus laevis frogs (Nasco or Xenopus I) kept in aquarium tanks at 19–21° C., on a 12 hr light/dark cycle. Mature females were anesthetized by immersion for approximately 30 min in a 0.12% 3-aminobenzoic acid ethyl ester solution, a small incision was made in the abdominal wall and a piece of ovary was removed and placed in Modified Barth's solution (MBS; in mM) containing 88 NaCl, 1 KCl, 10 HEPES, 0.82 MgSO4, 2.4 NaHCO3, 0.91 CaCl2, 0.33 Ca(NO3)2 (pH 7.5). To facilitate manual dissection of oocytes, a section of ovary was transferred from MBS to a hypertonic buffer containing 108 mM NaCl, 2 mM KCl, 2 mM EDTA, 10 mM HEPES, pH 7.5 and theca and epithelial layers of mature oocytes (stages V and VI) were removed with surgical forceps. The follicular layer was removed by a 10 min immersion in 0.5 mg/ml of collagenase in buffer containing 83 mM NaCl, 2 mM KCl, 1 mM MgCl2 and 5 mM HEPES.
Human NR1a, NR2A and NR2B cDNAs in pCDNA-1Amp were transformed and amplified in XL-1 Blue cells and purified with the MaxPrep Qiagen kit. Oocytes were injected with cDNA into the nucleus in the following concentrations: NR1a/2A cDNAs 0.75 ng/30 nl 1:1 ratio, NR1a/2B cDNAs 3.0 ng/30 nl: 1:1 ratio. Injections were made with micropipettes (10 μm tip diameter) connected to a Drummond micropipettor attached to a micromanipulator. After injection, oocytes were individually placed in wells of 96-well microtiter plates containing incubation medium (MBS supplemented with 10 mg/l streptomycin, 10,000 U/l penicillin G, 50 mg/l gentamicin, 2 mM sodium pyruvate, 0.5 mM theophylline) that had been sterilized by passage through a […]. Oocytes were incubated at 19° C. for 2 to 4 days after injection.
Oocytes were placed in a rectangular chamber (approximately […]) and perfused (2 ml/min) with frog Ringer (in mM) containing 115 NaCl, 2.5 KCl, 1.8 CaCl2, 10 HEPES (pH 7.2). […] Control responses were always measured before and after addition of the DCUKA. […] Data are expressed as the % inhibition of the agonist response obtained in the absence of the drug.

T1 sequence (P15381 whole entry): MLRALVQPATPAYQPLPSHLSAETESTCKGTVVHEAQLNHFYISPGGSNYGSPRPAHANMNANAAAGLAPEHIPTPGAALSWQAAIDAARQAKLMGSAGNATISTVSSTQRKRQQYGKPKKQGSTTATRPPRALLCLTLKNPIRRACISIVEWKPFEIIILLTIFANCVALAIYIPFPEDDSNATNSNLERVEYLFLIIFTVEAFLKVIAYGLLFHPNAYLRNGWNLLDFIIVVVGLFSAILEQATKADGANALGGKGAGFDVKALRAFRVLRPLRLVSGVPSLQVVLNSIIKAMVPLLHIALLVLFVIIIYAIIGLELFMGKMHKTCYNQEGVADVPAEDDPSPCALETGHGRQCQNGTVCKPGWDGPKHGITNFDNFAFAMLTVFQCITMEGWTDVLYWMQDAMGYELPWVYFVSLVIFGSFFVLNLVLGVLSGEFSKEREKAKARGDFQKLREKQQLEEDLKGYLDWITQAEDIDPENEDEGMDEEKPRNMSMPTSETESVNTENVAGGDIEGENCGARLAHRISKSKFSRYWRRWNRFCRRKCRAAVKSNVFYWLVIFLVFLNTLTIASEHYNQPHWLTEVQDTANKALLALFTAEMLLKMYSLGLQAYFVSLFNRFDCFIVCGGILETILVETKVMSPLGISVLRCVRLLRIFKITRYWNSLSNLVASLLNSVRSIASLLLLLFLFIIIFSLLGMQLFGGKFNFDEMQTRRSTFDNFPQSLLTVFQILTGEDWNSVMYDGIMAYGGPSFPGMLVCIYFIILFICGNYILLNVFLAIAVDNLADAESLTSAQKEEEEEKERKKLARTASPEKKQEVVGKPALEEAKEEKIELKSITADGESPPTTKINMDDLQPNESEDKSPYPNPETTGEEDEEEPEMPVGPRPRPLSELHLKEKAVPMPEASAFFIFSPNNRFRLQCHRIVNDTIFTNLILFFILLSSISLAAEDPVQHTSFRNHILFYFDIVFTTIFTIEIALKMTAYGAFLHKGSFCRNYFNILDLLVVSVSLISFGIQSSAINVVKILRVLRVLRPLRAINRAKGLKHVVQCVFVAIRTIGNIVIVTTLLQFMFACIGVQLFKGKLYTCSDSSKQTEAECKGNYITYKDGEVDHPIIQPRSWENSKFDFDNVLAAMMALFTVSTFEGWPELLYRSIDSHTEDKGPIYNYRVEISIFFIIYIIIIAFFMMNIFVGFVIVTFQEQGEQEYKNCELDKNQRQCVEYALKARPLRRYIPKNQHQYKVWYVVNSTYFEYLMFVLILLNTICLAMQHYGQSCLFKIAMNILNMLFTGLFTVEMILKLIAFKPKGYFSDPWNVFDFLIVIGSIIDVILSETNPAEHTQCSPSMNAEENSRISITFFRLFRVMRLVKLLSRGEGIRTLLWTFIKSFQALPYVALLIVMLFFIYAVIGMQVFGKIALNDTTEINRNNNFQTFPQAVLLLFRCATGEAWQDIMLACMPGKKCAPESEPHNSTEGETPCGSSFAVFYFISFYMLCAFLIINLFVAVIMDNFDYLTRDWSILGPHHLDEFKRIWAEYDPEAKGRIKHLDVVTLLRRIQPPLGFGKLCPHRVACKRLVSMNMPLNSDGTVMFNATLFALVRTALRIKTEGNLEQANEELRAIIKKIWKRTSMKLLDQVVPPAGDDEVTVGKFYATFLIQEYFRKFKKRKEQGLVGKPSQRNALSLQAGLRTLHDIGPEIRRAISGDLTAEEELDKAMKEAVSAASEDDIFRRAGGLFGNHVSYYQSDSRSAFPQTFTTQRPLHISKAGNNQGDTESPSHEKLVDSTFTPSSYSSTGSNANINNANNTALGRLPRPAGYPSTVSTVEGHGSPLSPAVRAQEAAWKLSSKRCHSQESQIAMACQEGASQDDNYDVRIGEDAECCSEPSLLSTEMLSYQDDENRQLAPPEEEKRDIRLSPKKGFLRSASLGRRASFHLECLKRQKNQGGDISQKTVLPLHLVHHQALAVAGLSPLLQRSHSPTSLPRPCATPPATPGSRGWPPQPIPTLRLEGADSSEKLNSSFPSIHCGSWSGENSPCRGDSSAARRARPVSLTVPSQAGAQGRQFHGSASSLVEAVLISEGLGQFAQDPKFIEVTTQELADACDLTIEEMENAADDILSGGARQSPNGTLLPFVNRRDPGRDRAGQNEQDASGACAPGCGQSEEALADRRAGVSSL

| Compound | open arm entries (anxiolytic effect) (naive Swiss-Webster mice; about 90 minutes before testing) | total arm entries (locomotor activity) (naive Swiss-Webster mice; compared to vehicle) | IC50 [1] | decrement in the current through VSCCs [2] | IC50 [3] |
| --- | --- | --- | --- | --- | --- |
| COC(=O)c1cc(NC(=O)N(c2ccccc2)c2ccccc2)c2c(Cl)cc(Cl)cc2n1 [DCUK-OMe, (N,N-diphenyl)-4-ureido-5,7-dichloro-2-carboxy-quinoline methyl ester] | has anxyolitic activity | did not show any increase in total arm entries | – | – | – |
| O=C(O)c1cc(NC(=O)N(c2ccccc2)c2ccccc2)c2c(Cl)cc(Cl)cc2n1 [DCUKA, (N,N-diphenyl)-4-ureido-5,7-dichloro-2-carboxy-quinoline] | – | – | > 200 µM | less than 20% | 12.8 µM |

Reference: patent US6962930B1, “Compounds, compositions and method suitable for amelioration of withdrawal syndromes and withdrawal-induced brain damage” (Lohocla Research Corporation, priority 1997, dated 2005)
